Data as given in PMC10313921, “A living ex vivo platform for functional, personalized brain cancer diagnosis” (Cell Reports Medicine, 2023).

Columns and labels:
[1] = test system: LN229 (established GBM line); test: Drug screening of LN229 tumor foci on OBSCs; type: cell-based, human
Procedure, shortened: (§1)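 Bioluminescence viability readout, 3 d post-treatment, normalized to day-1 tumor fluorescence vs untreated; 6 drug concentrations or XRad, n = 4 foci per concentration. Drug sensitivity score sums weighted parameters comparing tumor kill with OBSC toxicity, ranging −100 to 100.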

[2] = test system: U373WT (wild-type established GBM line); test: Drug screening of U373WT tumor foci on OBSCs; type: cell-based, human; settings: U373 WT on OBSCs
Procedure, shortened: as §1

[3] = test system: U373KO (RAD18 knockout of U373WT via CRISPR); test: Drug screening of U373KO tumor foci on OBSCs; type: cell-based, human; settings: U373 KO on OBSCs
Procedure, shortened: as §1

[4] = test system: MB231Br (breast cancer metastasis to brain); test: Drug screening of MB231Br tumor foci on OBSCs; type: cell-based, human
[5] = test system: PDIPG (low-passage pediatric patient-derived line); test: Drug screening of PDIPG tumor foci on OBSCs; type: cell-based, human
Procedure, shortened: as §1

[6] = test system: MG-II patient tumor tissue (WHO grade II meningioma); test: Drug screening of uncultured patient tumor tissue MG-II on OBSCs; type: cell-based; settings: Homo sapiens, dose required to kill 90% of the tumor
Description: Tumor cells were seeded onto OBSCs 2h after slicing as described above. One day after tumor seeding, six concentrations of each drug were diluted in the media underneath each culture insert, or XRad was applied using an X-Rad 320 Precision X-ray machine (n = 4 tumor foci per concentration; n ≥ 24 tumor foci per drug per cell line). Three days after treatment, the bioluminescence of live tumor cells was measured using an AMI optical imager (Spectral Instruments) and dose-response curves were generated. Tumor survival was normalized to day one tumor fluorescence and compared to an untreated control group.
To engraft onto OBSCs, the cryopreserved/thawed or fresh brain tumor tissue was filtered through a 100 μm cell strainer. Each 50 mg of tissue was transfected with 1mL mcherry-FLuc Lentivirus at 1.5e7 vg/ml with 1μL polybrene for 4h at 37°C. After incubation, the brain tumor tissue was washed with PBS three times to remove the residual virus and reconstituted in PBS with a final volume of 150 μL. Then the tissue solution was engrafted atop OBSCs at ∼0.5 mg tissue in 3 μL of PBS on each hemisphere of the slice. The OBSC engrafted with patient tumor tissue was incubated at 37°C with 5% CO2 and 95% humidity. The BSM was changed after 24h and subsequently every 3 days. Tumor treatment studies were executed as described above for tumor lines. The viability of the patient tissue was measured by an AMI optical imaging system with the addition of 1.5 mg/mL luciferin underneath the culture insert.
Several weighted parameters were factored into an overall drug sensitivity score.
For DSS parameters 1–6, therapeutic windows were calculated by comparing OBSC toxicity and tumor response at the doses where tumor kill passed through the DSS parameter (Table S1 and S3). For DSS parameter 7, the therapeutic window was calculated by comparing the slopes through the tumor EC50 and the OBSC tox EC50. For DSS parameter 8, the therapeutic window was calculated by comparing the areas under tumor kill and OBSC tox curves. Normalized therapeutic window ratios for DSS parameters 1–8 within each drug-tumor-OBSC interaction were calculated in the following manner: within each window, values ranged from +1 to −1, where values approaching +1 signify increasing tumor kill relative to normal tissue toxicity, and values approaching −1 indicate agents where tumors remained highly viable while toxicity to the normal OBSC tissue was elevated. DSS parameters 9–11 were determined based on the behavior of the tumor in response to the drug, as defined above.
All individually weighed parameters were added together to generate the DSS. Overall DSS from 0 to 100 signify increasing efficacy in tumor kill relative to OBSC toxicity, while scores from 0 to −100 describe scenarios in which tumors thrive more effectively than OBSCs for a given treatment. Dose-response values were calculated via linear interpolation of raw data, not from best-fit curve equations.

[7] = test system: GBM8 (high-passage patient-derived GBM line); test: Drug screening of GBM8 tumor foci on OBSCs; type: cell-based, human
Procedure, shortened: as §1

[8] = test system: PIS patient tumor tissue (intracranial sarcoma); test: Drug screening of uncultured patient tumor tissue PIS on OBSCs; type: cell-based, human; settings: Homo sapiens; PIS on OBSCs; dose required to kill 90% of the tumor
Procedure, shortened: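 Uncultured patient tumour tissue, transduced with mCherry-FLuc lentivirus, engrafted on organotypic brain slice cultures (OBSCs); six drug concentrations or X-ray dosing given one day after seeding, n = 4 foci per concentration. Bioluminescence with luciferin read three days post-treatment, normalised to day one and untreated controls; drug sensitivity score combines weighted therapeutic-window parameters versus OBSC toxicity (−100 to 100).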

[9] = test system: MS21 (low-passage patient-derived GBM line); test: Drug screening of MS21 tumor foci on OBSCs; type: cell-based, human
Procedure, shortened: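 Tumor foci (25,000 cells) were seeded onto organotypic brain slice cultures 2 h after slicing, two per slice; one day later six drug concentrations were added to the medium or X-ray was applied. Bioluminescence was read 3 days after treatment, normalized to day-one fluorescence and to untreated controls.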

[10] = area under the dose-response curve, trapezoidal rule
[11] = dose required to kill 10% of the tumor
[12] = dose required to kill 25% of the tumor
[13] = Homo sapiens, U373 MG, dose required to kill 50% of the tumor
[14] = Homo sapiens, U373 MG, dose required to kill 90% of the tumor
[15] = Homo sapiens, U373 MG, dosed day 1, survival via bioluminescence day 4, linear interpolation

## Nc1ccn([C@@H]2O[C@H](CO)[C@@H](O)C2(F)F)c(=O)n1 [Gemcitabine]
[1]
  Killing at highest dose: 2.80E-01 fraction of tumor population killed
[1]; Homo sapiens, LN-229, dose required to kill 50% of the tumor
  EC50: > 10 µM
[1]; Homo sapiens, LN-229, dose required to kill 90% of the tumor
  EC90: > 10 µM
[1]; Homo sapiens, LN-229, dosed day 1, survival via bioluminescence day 4, linear interpolation
  IC50: > 10 µM
[1]; [10]
  AUC: 7.06E+01
[1]; [11]
  EC10: 6.23 µM
[1]; [12]
  EC25: 8.4 µM
[1]; slope through the EC50
  Slope: -5.45E-03
[2]; [13]
  EC50: > 10 µM
[2]; [14]
  EC90: > 10 µM
[2]; [15]
  IC50: > 10 µM
[2]
  Killing at highest dose: 3.30E-01 fraction of tumor population killed
[2]; [10]
  AUC: 7.29E+01
[2]; [11]
  EC10: 0.385 µM
[2]; [12]
  EC25: 50 µM
[2]; slope through the EC50
  Slope: -1.60E-03
[3]; [13]
  EC50: 868 nM
[3]; [14]
  EC90: > 10 µM
[3]; [15]
  IC50: 900 nM
[3]
  Killing at highest dose: 6.20E-01 fraction of tumor population killed
[3]; [10]
  AUC: 3.67E+01
[3]; [11]
  EC10: 0.139 µM
[3]; [12]
  EC25: 0.347 µM
[3]; slope through the EC50
  Slope: -3.80E-01
[4]; Homo sapiens, MB231BR on OBSCs, dose required to kill 50% of the tumor
  EC50: > 10 µM
[4]; Homo sapiens, MB231BR on OBSCs, dose required to kill 90% of the tumor
  EC90: > 10 µM
[4]; Homo sapiens, MB231Br on OBSCs, dosed day 1, survival via bioluminescence day 4, linear interpolation
  IC50: > 10 µM
[4]; MB231BR on OBSCs
  Killing at highest dose: -7.90E-01 fraction of tumor population killed
[4]; MB231BR on OBSCs, slope through the EC50
  Slope: 1.56E-02
[5]; Homo sapiens
  EC90: > 10 µM
[5]; Homo sapiens, PDIPG on OBSCs, dose required to kill 50% of the tumor, read-out: EC50
  EC50: > 10 µM
[5]; Homo sapiens, PDIPG on OBSCs, dosed day 1, survival via bioluminescence day 4, linear interpolation, read-out: IC50
  IC50: > 10 µM
[5]; PDIPG on OBSCs
  Killing at highest dose: 4.80E-01 fraction of tumor population killed
[5]; PDIPG on OBSCs, area under the dose-response curve, trapezoidal rule
  AUC: 5.72E+01
[5]; PDIPG on OBSCs, dose required to kill 25% of the tumor
  EC25: 0.284 µM
[5]; PDIPG on OBSCs, slope through the EC50
  Slope: -3.03E-04
[6]
  EC90: > 10 µM
[7]; GBM8 on OBSCs
  Killing at highest dose: 9.80E-01 fraction of tumor population killed
[7]; GBM8 on OBSCs, area under the dose-response curve, trapezoidal rule
  AUC: 2.79E+00
[7]; GBM8 on OBSCs, dose required to kill 10% of the tumor
  EC10: 0.0676 µM
[7]; GBM8 on OBSCs, dose required to kill 25% of the tumor
  EC25: 0.169 µM
[7]; GBM8 on OBSCs, dose required to kill 75% of the tumor
  EC75: 0.533 µM
[7]; GBM8 on OBSCs, slope through the EC50
  Slope: -1.48E+00
[7]; Homo sapiens
  EC90: 2000 nM
[7]; Homo sapiens, GBM8 on OBSCs, dose required to kill 50% of the tumor, read-out: EC50
  EC50: 338 nM
[7]; Homo sapiens, GBM8 on OBSCs, dosed day 1, survival via bioluminescence day 4, linear interpolation, read-out: IC50
  IC50: 340 nM
[8]
  EC90: > 10 µM
[9]; Homo sapiens
  EC90: > 10 µM
[9]; Homo sapiens, MS21 on OBSCs, dose required to kill 50% of the tumor, read-out: EC50
  EC50: > 10 µM
[9]; Homo sapiens, MS21 on OBSCs, dosed day 1, survival via bioluminescence day 4, linear interpolation, read-out: IC50
  IC50: > 10 µM
[9]; MS21 on OBSCs
  Killing at highest dose: -1.20E-01 fraction of tumor population killed
